These results are taken from PubChem BioAssay (NCI).

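96-well plates; 48 h exposure; 5 concentrations. Endpoints by linear interpolation between flanking doses. Not reached: highest tested concentration assigned. Here, GI50 denotes the concentration required for 50% inhibition of growth. TGI is the concentration that stops growth completely.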

Common to all, as to test: NCI tumour cell line growth inhibition, 48 h
Experiment [1] deals with RPMI-8226 leukemia.
In experiment [2] the test system is TK-10 renal.
In experiment [3] the test system is HL-60(TB) leukemia.
The subject of experiment [4] is SW-620 colon.
The subject of experiment [5] is HOP-92 NSCLC.
Experiment [6] deals with OVCAR-4 ovarian.
Experiment [7] deals with CCRF-CEM leukemia.
For experiment [8], the system named is SK-MEL-28 melanoma.
Experiment [9] concerns HOP-62 NSCLC.
Experiment [10] has as its system OVCAR-5 ovarian.

`Cc1nc2ccccc2c(=O)n1NC(=O)Cc1ccccc1`: the TGI in experiment [1], in experiment [2], in [3], in [4], in [5] and in experiment [6] was more than 100 µM throughout. For the same compound, the TGI in experiment [7], in [8], in experiment [9] and in [10] was more than 100 µM in each case.
As for `COc1cc2c3c(cc(Cl)nc3c1OC)C(O)(CC(C)=O)C(=O)N2` (stereo not given), the TGI in experiment [1] was more than 78.6 µM; in [2], 37.3 µM; in experiment [3], 24.1 µM; in [4] it was more than 71 µM; in [5] it was 34.3 µM; in [6] it was 32.4 µM. The TGI in experiment [7] is more than 45.4 µM; in experiment [8] it was more than 60.7 µM; in [9], more than 59.8 µM; in experiment [10], more than 56.4 µM.
`CCOC(=O)N(CC)c1c(C(F)(F)F)cc(-c2ccccc2)[nH]c1=O`: the TGI in experiment [1] is 39.3 µM; in experiment [2], more than 100 µM; in [3], 30 µM; in experiment [4] it was more than 100 µM; in experiment [5], more than 100 µM; in experiment [6] it was 94.8 µM. Moreover, the TGI in experiment [7] is 63.8 µM; in [8] it was more than 100 µM; in experiment [9], more than 100 µM; in experiment [10], more than 100 µM.
On to `C=C1C(=O)[C@]23[C@H](O)[C@H]1CC[C@H]2[C@@]12CO[C@@]3(O)C[C@@H]1C(C)(C)CC[C@@H]2O`, for which the TGI in experiment [1] was more than 25 µM; in experiment [2], more than 25 µM; in experiment [3], more than 25 µM; in [4], 13.8 µM; in [5] it was more than 25 µM; in [6], more than 25 µM. Also, the TGI is more than 25 µM in [7], 22.3 µM in experiment [8], more than 25 µM in experiment [9] and more than 25 µM in experiment [10].
Take `CC(C)OC(=O)c1ccc(CCC2=CC(=O)C(Br)=CC2=O)cc1`: the TGI in experiment [1] came out at 43.3 µM; in [2] it was 45.3 µM; in [3], 9.25 µM; in [4] it was 29.2 µM; in experiment [5] it was 24.9 µM; in experiment [6], 23.1 µM. The TGI in [7] stood at 5.06 µM; in experiment [8] it was 32.7 µM; in experiment [9] it was 63.1 µM; in experiment [10], 42.1 µM.
In the case of `CCOC(OCC)C(CCc1ccccc1)c1c(N)nc(N)[nH]c1=O` (stereo not given), the TGI is more than 100 µM in experiment [1]; more than 100 µM in experiment [2]; more than 100 µM in [3]; more than 100 µM in [4]; 86.8 µM in experiment [5]; more than 100 µM in experiment [6]. Moreover, the TGI in experiment [7] was more than 100 µM; in [8], more than 100 µM; in experiment [9], more than 100 µM; in experiment [10] it was 73.3 µM.
On to `Cc1cc(NC2=NCCO2)c2c(c1C)CCCC2`, for which the TGI was 45.3 µM in [1]; more than 100 µM in [2]; 33.2 µM in [3]; more than 100 µM in experiment [4]; 13.6 µM in experiment [5]; more than 100 µM in [6]. Also, the TGI is more than 100 µM in [7], 40.7 µM in [8], 32 µM in experiment [9] and 57.1 µM in experiment [10].
With `O=C(c1ccc(Cl)cc1)N1N=C(c2ccc(Cl)cc2)CC1(O)c1cc(F)c(Cl)cc1Cl` (stereo not given), the TGI in [1] was 40.3 µM; in [2], more than 100 µM; in experiment [3], 87 µM; in experiment [4], more than 100 µM; in [5], 51.3 µM; in experiment [6], 51.5 µM. For the same compound, the TGI is more than 100 µM in experiment [7], more than 100 µM in experiment [8], 76.9 µM in experiment [9] and more than 100 µM in experiment [10].
`COc1ccc2[nH]c(C(=O)N3CC(CCl)c4ccc([N+](=O)[O-])cc43)cc2c1` (stereo not given): the TGI in [1], in [2], in experiment [3], in experiment [4], in experiment [5] and in experiment [6] was more than 100 µM each time. Moreover, the TGI in [7], in experiment [8], in experiment [9] and in experiment [10] was more than 100 µM each time.
Regarding `COC(=O)c1ccc(C)cc1C1CN=NC12Cc1cc(C)c(C)cc1C2=O` (stereo not given), the TGI in [1] was more than 100 µM; in [2] it was more than 100 µM; in experiment [3], 55.2 µM; in [4], more than 100 µM; in [5] it was more than 100 µM; in experiment [6], more than 100 µM. For the same compound, the TGI in experiment [7], in [8], in experiment [9] and in experiment [10] was more than 100 µM each time.
As to `Oc1c(I)cc(I)cc1CNCCCN(Cc1ccccn1)Cc1ccccn1`, the GI50 in [1] is 1340 nM; in [2], 922 nM; in [3] it was 1080 nM; in experiment [4], 1040 nM; in experiment [5], 985 nM; in experiment [6], 1020 nM. The GI50 was 1540 nM in experiment [7], 1220 nM in experiment [8], 1020 nM in experiment [9] and 953 nM in [10]. Besides, the TGI in experiment [1] is 4.47 µM; in experiment [2] it was 1.8 µM; in experiment [3] it was 2.51 µM; in [4], 2.41 µM; in experiment [5], 2.48 µM; in [6] it was 2.31 µM. In addition, the TGI is 50 µM in experiment [7], 3.16 µM in experiment [8], 2.35 µM in [9] and 2.11 µM in [10].
For `COCC(=O)[C@]1(O)Cc2c(O)c3c(c(O)c2[C@@H](OC2CC(N)C(O)C(C)O2)C1)C(=O)c1c(OC)cccc1C3=O` (stereo not given in full), the TGI came out at 0.564 µM in experiment [1]; 13.8 µM in experiment [2]; 0.184 µM in [3]; 3.01 µM in experiment [4]; 1.12 µM in [5]; 1.56 µM in [6]. In addition, the TGI in [7] came out at 0.4 µM; in experiment [8] it was 0.398 µM; in experiment [9] it was 0.847 µM; in experiment [10] it was 1.04 µM.
`CC1NOC(NS(=O)(=O)c2ccc(N=Nc3c(O)c(C(=O)O)cc4ccccc34)cc2)C1C` (stereo not given): the TGI in experiment [1], in experiment [2], in [3], in experiment [4], in experiment [5] and in experiment [6] was more than 100 µM in each case. Also, the TGI in experiment [7], in experiment [8], in experiment [9] and in experiment [10] was more than 100 µM throughout.
Turning to `COC(=O)C1=C(OC(=O)/C(=C/c2ccc(Cl)cc2)c2ccccc2)C(C(=O)OC)[C@@]2(O)[C@@H](C(=O)OC)[C@H](C)C[C@@H]1[C@@H]2C(=O)OC` (stereo not given in full), the TGI in experiment [1], in experiment [2], in experiment [3], in experiment [4], in experiment [5] and in [6] was more than 100 µM throughout. For the same compound, the TGI in [7], in [8], in [9] and in [10] was more than 100 µM throughout.
With `[N-]=[N+]=C1CNC(=O)NC1=O`, the TGI in experiment [1], in experiment [2], in experiment [3], in experiment [4], in [5] and in experiment [6] was more than 100 µM each time. The TGI in [7], in [8], in [9] and in [10] was more than 100 µM each time.
As for `CC(=O)c1ccc(NC(=O)/C(=N\NC(N)=O)C(C#N)CC(C)(C)C=O)cc1` (stereo not given), the TGI in [1], in experiment [2], in experiment [3], in [4], in [5] and in [6] was more than 100 µM each time. Also, the TGI in [7], in experiment [8], in [9] and in experiment [10] was more than 100 µM each time.
`O=C(c1ccc(Cl)cc1)N(Cc1cccnc1)C(=S)N(Cc1cccnc1)C(=O)c1ccc(Cl)cc1`: the TGI was more than 100 µM in experiment [1]; more than 100 µM in [2]; 85.2 µM in [3]; more than 100 µM in experiment [4]; more than 100 µM in experiment [5]; 79.7 µM in experiment [6]. Further, the TGI in experiment [7], in experiment [8], in [9] and in experiment [10] was more than 100 µM each time.
Regarding `Cc1ccc([N+](=O)[O-])cc1S(=O)(=O)Nc1ccc(C2=NN(c3ccc([N+](=O)[O-])cc3[N+](=O)[O-])C(c3ccccc3O)C2)cc1` (stereo not given), the TGI in experiment [1], in [2], in [3], in experiment [4], in experiment [5] and in [6] was more than 100 µM in each case. In addition, the TGI in experiment [7], in [8], in experiment [9] and in experiment [10] was more than 100 µM in each case.
